Results from US7928233B2, “Spiroindolinone pyridine derivatives” (Hoffmann-La Roche Inc., priority 2009, dated 2011).

Biological target: interaction between p53 and MDM2 proteins (recombinant GST-tagged MDM2 / p53 peptide) (Homo sapiens, UniProt Q00987)
Assay: HTRF assay of inhibition of p53-MDM2 interaction
Format: binding
Settings: 0.02% BSA; HTRF GST-MDM2 / biotinylated p53 peptide
Protocol: The ability of the compounds to inhibit the interaction between p53 and MDM2 proteins was measured by an HTRF (homogeneous time-resolved fluorescence) assay in which recombinant GST-tagged MDM2 binds to a peptide that resembles the MDM2-interacting region of p53 (Lane et al.). Binding of GST-MDM2 protein and p53-peptide (biotinylated on its N-terminal end) is registered by the FRET (fluorescence resonance energy transfer) between Europium (Eu)-labeled anti-GST antibody and streptavidin-conjugated Allophycocyanin (APC).
Test is performed in black flat-bottom 384-well plates (Costar) in a total volume of 40 uL containing: 90 nM biotinylate peptide, 160 ng/ml GST-MDM2, 20 nM streptavidin-APC (PerkinElmerWallac), 2 nM Eu-labeled anti-GST-antibody (PerkinElmerWallac), 0.2% bovine serum albumin (BSA), 1 mM dithiothreitol (DTT) and 20 mM Tris-borate saline (TBS) buffer as follows: Add 10 uL of GST-MDM2 (640 ng/ml working solution) in reaction buffer to each well. Add 10 uL diluted compounds (1:5 dilution in reaction buffer) to each well, mix by shaking Add 20 uL biotinylated p53 peptide (180 nM working solution) in reaction buffer to each well and mix on shaker. Incubate at 37° C. for 1 h. Add 20 uL streptavidin-APC and Eu-anti-GST antibody mixture (6 nM Eu-anti-GST and 60 nM streptavidin-APC working solution) in TBS buffer with 0.2% BSA, shake at room temperature for 30 minutes and read using a TRF-capable plate reader at 665 and 615 nm (Victor 5, Perkin ElmerWallac). If not specified, the reagents were purchased from Sigma Chemical Co.

Chain of interaction between p53 and MDM2 proteins (recombinant GST-tagged MDM2 / p53 peptide) (Q00987 whole entry): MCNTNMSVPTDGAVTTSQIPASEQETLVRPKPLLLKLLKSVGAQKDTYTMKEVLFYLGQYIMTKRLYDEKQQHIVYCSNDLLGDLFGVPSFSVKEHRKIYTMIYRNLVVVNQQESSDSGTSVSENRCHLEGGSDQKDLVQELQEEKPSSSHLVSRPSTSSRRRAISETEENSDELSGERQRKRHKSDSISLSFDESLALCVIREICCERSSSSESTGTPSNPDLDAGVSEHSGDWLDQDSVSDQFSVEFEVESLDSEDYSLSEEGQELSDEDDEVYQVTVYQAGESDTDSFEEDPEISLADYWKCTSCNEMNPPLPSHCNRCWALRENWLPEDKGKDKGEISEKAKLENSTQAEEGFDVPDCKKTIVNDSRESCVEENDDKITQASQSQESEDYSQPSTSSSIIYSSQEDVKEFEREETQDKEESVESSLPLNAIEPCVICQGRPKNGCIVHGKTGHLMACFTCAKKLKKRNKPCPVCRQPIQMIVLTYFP

Row | IC50 [nM] | SMILES
1 | 108 | Cc1ccc(F)cc1[C@@H]1NC(=O)C[C@H](c2cc(Cl)cnc2OC(C)(C)C(=O)O)[C@@]12C(=O)Nc1cc(Cl)ccc12 [Example 9, chiral (2′S, 3S, 4′R)-6-chloro-4′-[5-chloro-2-(1-hydroxycarbonyl-1-methyl-ethoxy)-pyridin-3-yl]-2′-(5-fluoro-2-methyl-phenyl) spiro[3H-indole-3,3′-piperidine]-2,6′(1H)-dione]
2 | 145 | Cc1ccc(F)cc1[C@@H]1NC(=O)C[C@H](c2cc(Cl)cnc2OC(C)(C)C(=O)O)[C@@]12C(=O)Nc1cc(Cl)ccc12 (racemic) [Example 8, racemic (2′S, 3S, 4′R)-6-chloro-4′-[5-chloro-2-(1-hydroxycarbonyl-1-methyl-ethoxy)-pyridin-3-yl]-2′-(5-fluoro-2-methyl-phenyl) spiro[3H-indole-3,3′-piperidine]-2,6′(1H)-dione]
3 | 135 | Cc1ccc(F)cc1[C@@H]1NC(=O)C[C@H](c2cc(Cl)cnc2OC(C)(C)C(=O)NS(C)(=O)=O)[C@@]12C(=O)Nc1cc(Cl)ccc12 [Example 11, chiral (2′S, 3S, 4′R)-4′-[5-chloro-2-(2-methanesulfonylamino-1,1-methyl-2-oxo-ethoxy)-pyridin-3-yl]-6-chloro-2′-(5-fluoro-2-methyl-phenyl) spiro[3H-indole-3,3′-piperidine]-2,6′(1H)-dione]
4 | 56 | Cc1ccc(Cl)cc1[C@@H]1NC(=O)C[C@H](c2cc(Cl)cnc2OC(C)(C)C(=O)O)[C@@]12C(=O)Nc1cc(Cl)ccc12 [Example 15, chiral (2′S, 3S, 4′R)-6-chloro-4′-[5-chloro-2-(1-hydroxycarbonyl-1-methyl-ethoxy)-pyridin-3-yl]-2′-(5-chloro-2-methyl-phenyl) spiro[3H-indole-3,3′-piperidine]-2,6′(1H)-dione]
